Assay results: PMC2784992 (Nature chemical biology, 2009)

System: Plasmodium falciparum lines, progeny, field isolates and transfected parasites
Conditions: 0.8 µM verapamil with DHMS

COc1ccc(CCN(C)CCCC(C#N)(c2ccc(OC)c(OC)c2)C(C)C)cc1OC (stereo not shown) [verapamil]
effect on parasite response to 1: did not have any effect
